The text below walks through data of patent US11912699B2, “Tau-protein targeting compounds and associated” (Arvinas Operations, Inc., priority 2019, dated 2024).

Counter-ions that a name gives are not always drawn. Like-named read-outs stand apart in the source and are kept apart here. Where only a bound is given, the exact number is not on record here.

The assay concerns the target T1, Tau P301L (Homo sapiens, UniProt P10636, P618L).
T1 construct: expressed in transfected cells
The experiment in a line: In vitro tau degradation assay in CHOK1 Tau P301L cells (sarkosyl insoluble tau, WES). Particulars: CHO-K1, relative to DMSO doxycycline control, read-out: Tau Protein Degradation effect at 1 μM. The class given is cell-based. The method, boiled down: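 T-Rex CHOK1 clone D1 with doxycycline-inducible (1 μg/ml) Tau P301L treated 48 h with compound at 1 μM, doxycycline removed for the final 24 h. Sarkosyl-insoluble tau quantified by WES capillary electrophoresis with Tau1 antibody, expressed relative to DMSO doxycycline control and binned as ≤50% or >50% remaining.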

Setting [1] is: remaining tau protein in sarkosyl insoluble pellet, CHOK1 Tau P301L cells treated 48 hours with test compound at 1 μM, doxycycline removed for the last 24 hours.

T1 sequence (P10636 1-441 isoform P10636-8 P301L): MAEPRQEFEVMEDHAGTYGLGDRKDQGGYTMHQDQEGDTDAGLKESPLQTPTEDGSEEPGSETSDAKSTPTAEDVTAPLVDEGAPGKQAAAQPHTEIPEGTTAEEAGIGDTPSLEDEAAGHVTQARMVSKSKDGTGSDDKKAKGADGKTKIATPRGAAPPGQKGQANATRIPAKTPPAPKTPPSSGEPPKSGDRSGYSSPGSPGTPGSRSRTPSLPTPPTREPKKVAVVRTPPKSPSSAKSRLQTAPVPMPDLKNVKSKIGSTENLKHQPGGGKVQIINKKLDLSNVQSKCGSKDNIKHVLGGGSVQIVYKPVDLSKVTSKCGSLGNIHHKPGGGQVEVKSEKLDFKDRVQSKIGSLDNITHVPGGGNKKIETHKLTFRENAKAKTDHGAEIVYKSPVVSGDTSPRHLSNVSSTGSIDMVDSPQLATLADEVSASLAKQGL

For the compound `Cc1ncsc1-c1ccc([C@H](C)NC(=O)[C@@H]2C[C@@H](O)CN2C(=O)[C@@H](c2cc(N3CCN(CCO[C@H]4C[C@H](Oc5ccc(-c6ccc7c8cnccc8n(C)c7c6)cn5)C4)CC3)no2)C(C)C)cc1` [Compound 391, (2S,4R)-4-hydroxy-1-((R)-3-methyl-2-(3-(4-(2-((1r,3R)-3-((5-(5-methyl-5H-pyrido[4,3-b]indol-7-yl)pyridin-2-yl)oxy)cyclobutoxy)ethyl)piperazin-1-yl)isoxazol-5-yl)butanoyl)-N-((S)-1-(4-(4-methylthiazol-5-yl)phenyl)ethyl) pyrrolidine-2-carboxamide], the remaining activity at 1 µM under setting [1] was less than 50%. Consider `O=C1CCC(N2C(=O)c3ccc(OCCN4CC5(C4)CN(C[C@H]4C[C@H](Oc6ccc(-c7ccn8c(n7)nc7ccccc78)cn6)C4)C5)cc3C2=O)C(=O)N1` (stereo partly shown) [Compound 473, 5-(2-(6-(((1r,3r)-3-((5-(benzo[4,5]imidazo[1,2-a]pyrimidin-2-yl)pyridin-2-yl)oxy)cyclobutyl)methyl)-2,6-diazaspiro[3.3]heptan-2-yl)ethoxy)-2-(2,6-dioxopiperidin-3-yl)isoindoline-1,3-dione], for which the remaining activity at 1 µM under setting [1] was less than 50%. The same measure, in the same setting: the result for `Nc1cccc2cnc(-n3ccc4cc(OCCOCCOCCOCCOCCOc5ccc6c(c5)C(=O)N(C5CCC(=O)NC5=O)C6=O)ncc43)cc12` (stereo not shown) [Compound 352, 5-((14-((1-(5-aminoisoquinolin-3-yl)-1H-pyrrolo[2,3-c]pyridin-5-yl)oxy)-3,6,9, 12-tetraoxatetradecyl)oxy)-2-(2,6-dioxo-piperidin-3-yl) isoindoline-1,3-dione] reads less than 50%; that for `Cn1c2ccncc2c2ccc(-c3ccc(O[C@H]4C[C@H](CN5CCC(CCOc6ccc7c(c6)C(=O)N(C6CCC(=O)NC6=O)C7=O)CC5)C4)nc3)cc21` (stereo partly shown) [Compound 478, 2-(2,6-dioxopiperidin-3-yl)-5-(2-(1-(((1r,3r)-3-((5-(5-methyl-5H-pyrido[4,3-b]indol-7-yl)pyridin-2-yl)oxy)cyclobutyl)methyl)piperidin-4-yl)ethoxy)isoindoline-1,3-dione], greater than 50%; that for `Cn1c2ccncc2c2ccc(C#CC3CCN(CCN4CCN(c5ccc6c(c5)C(=O)N(C5CCC(=O)NC5=O)C6=O)CC4)CC3)cc21` (stereo not shown) [Compound 533, 2-(2,6-dioxopiperidin-3-yl)-5-(4-(2-(4-((5-methyl-5H-pyrido[4,3-b]indol-7-yl)ethynyl)piperidin-1-yl)ethyl)piperazin-1-yl)isoindoline-1,3-dione], less than 50%. On the same count and under the same terms, the result for `O=C1CCC(N2C(=O)c3ccc(N4CCN(CCC5CCN(c6ccnc(Nc7ccc8ncccc8n7)c6)CC5)CC4)cc3C2=O)C(=O)N1` (stereo not shown) [Compound 656, 5-(4-(2-(1-(2-((1,5-naphthyridin-2-yl)amino)pyridin-4-yl)piperidin-4-yl)ethyl)piperazin-1-yl)-2-(2,6-dioxopiperidin-3-yl)isoindoline-1,3-dione] reads less than 50%.

For `O=C1CCC(N2C(=O)c3ccc(N4CCN(CCC5CCN(c6cc(Nc7ccc8ncccc8n7)ccn6)CC5)CC4)cc3C2=O)C(=O)N1` (stereo not shown) [Compound 583, 2-(2,6-dioxo-3-piperidyl)-5-[4-[2-[1-[4-(1,5-naphthyridin-2-ylamino)-2-pyridyl]-4-piperidyl]ethyl]piperazin-1-yl]isoindoline-1,3-dione], under setting [1], the remaining activity at 1 µM was less than 50%.

For `O=C1CCC(N2C(=O)c3ccc(N4CCN(CC5CCN(C[C@H]6C[C@H](Oc7ncc(-c8ccc9c%10cnccc%10n(C(F)F)c9c8)cc7F)C6)CC5)CC4)cc3C2=O)C(=O)N1` (stereo partly shown) [Compound 667, 5-(4-((1-(((1r,3r)-3-((5-(5-(difluoromehtyl)-5H-pyrido[4,3-b]indol-7-yl)-3-fluoropyridin-2-yl)oxy)cyclobutyl)methyl)piperidin-4-yl)methyl)piperazin-1-yl)-2-(2,6-dioxopiperidin-3-yl) isoindoline-1,3-dione], the remaining activity at 1 µM under setting [1] was less than 50%.

Consider `CN(C)c1cccc2cnc(-n3ccc4cc(N5CCC(CCN6CCN(c7cc8c(cc7F)C(=O)N(C7CCC(=O)NC7=O)C8=O)CC6)CC5)ncc43)cc12` (stereo not shown) [Compound 653, 5-(4-(2-(1-(1-(5-(dimethylamino)isoquinolin-3-yl)-1H-pyrrolo[2,3-c]pyridin-5-yl)piperidin-4-yl)ethyl)piperazin-1-yl)-2-(2,6-dioxopiperidin-3-yl)-6-fluoroisoindoline-1,3-dione], for which the remaining activity at 1 µM under setting [1] is less than 50%. The same measure, in the same setting: the result for `Cc1ncsc1-c1ccc([C@H](C)NC(=O)[C@@H]2C[C@@H](O)CN2C(=O)[C@@H](NC(=O)COCCCCCN2CCC(OC3CC(Oc4ccc(-c5ccc6c7cnccc7n(C)c6c5)cn4)C3)CC2)C(C)(C)C)cc1` (stereo partly drawn) [Compound 377, (2S,4R)-1-((S)-3,3-dimethyl-2-(2-((5-(4-((1r,3r)-3-((5-(5-methyl-5H-pyrido[4,3-b]indol-7-yl)pyridin-2-yl)oxy)cyclobutoxy)piperidin-1-yl)pentyl)oxy)acetamido)butanoyl)-4-hydroxy-N-((S)-1-(4-(4-methythiazol-5-yl)phenyl)ethyl) pyrrolidine-2-carboxamide] reads greater than 50%. With `O=C1CCC(N2C(=O)c3ccc(N4CCN(CCC5CCN(c6cc7ccn(-c8cc9cc(F)ccc9cn8)c7cn6)CC5)CC4)cc3C2=O)C(=O)N1` (stereo not shown) [Compound 598, 2-(2,6-dioxopiperidin-3-yl)-5-(4-(2-(1-(1-(6-fluoroisoquinolin-3-yl)-1H-pyrrolo[2,3-c]pyridin-5-yl)piperidin-4-yl)ethyl)piperazin-1-yl)isoindoline-1,3-dione], the remaining activity at 1 µM under setting [1] was less than 50%. Same read-out and setting: the figure for `O=C1CCC(N2C(=O)c3ccc(N4CCN(CCC5CCN(c6ncc(-c7ccc8c9cc(F)cnc9n(C(F)F)c8c7)cc6F)CC5)CC4)cc3C2=O)C(=O)N1` (stereo not shown) [Compound 597, 5-(4-(2-(1-(5-(9-(difluoromethyl)-3-fluoro-9H-pyrido[2,3-b]indol-7-yl)-3-fluoropyridin-2-yl)piperidin-4-yl)ethyl)piperazin-1-yl)-2-(2,6-dioxopiperidin-3-yl)isoindoline-1,3-dione] is less than 50%.

For `O=C1CCC(N2C(=O)c3cc(F)c(N4CCN(CC5CCN(c6ncc(-c7ccc8c9cnccc9n(C(F)F)c8c7)cc6F)CC5)CC4)cc3C2=O)C(=O)N1` (stereo not shown) [Compound 608, 5-(4-((1-(5-(5-(difluoromethyl)-5H-pyrido[4,3-b]indol-7-yl)-3-fluoropyridin-2-yl)piperidin-4-yl)methyl)piperazin-1-yl)-2-(2,6-dioxopiperidin-3-yl)-6-fluoroisoindoline-1,3-dione], the remaining activity at 1 µM (CHOK1 Tau P301L cells, remaining tau in sarkosyl insoluble pellet, 48 hours with test compound at 1 μM, doxycycline removed for last 24 hours) is greater than 50%. Regarding `Cc1ccc(-c2cn3ccc(N4CCC(CCN5CCN(c6ccc7c(c6)C(=O)N(C6CCC(=O)NC6=O)C7=O)CC5)CC4)cc3n2)cc1` (stereo not shown) [Compound 558, 2-(2,6-dioxopiperidin-3-yl)-5-(4-(2-(1-(2-(p-tolyl)imidazo[1,2-a]pyridin-7-yl)piperidin-4-yl)ethyl)piperazin-1-yl)isoindoline-1,3-dione], the remaining activity at 1 µM under setting [1] is less than 50%. The same measure, in the same setting: the result for `Cc1ncsc1-c1ccc([C@H](C)NC(=O)[C@@H]2C[C@@H](O)CN2C(=O)[C@@H](c2cc(OCCN3CCC(O[C@H]4C[C@H](Oc5ccc(-c6ccc7c8cnccc8n(C)c7c6)cn5)C4)CC3)no2)C(C)C)cc1` [Compound 398, (2S,4R)-4-hydroxy-1-((R)-3-methyl-2-(3-(2-(4-((1r,3R)-3-((5-(5-methyl-5H-pyrido[4,3-b]indol-7-yl)pyridin-2-yl)oxy)cyclobutoxy)piperidin-1-yl)ethoxy)isoxazol-5-yl)butanoyl)-N-((S)-1-(4-(4-methylthiazol-5-yl)phenyl)ethyl) pyrrolidine-2-carboxamide] reads less than 50%; that for `O=C1CCC(N2C(=O)c3ccc(C#CCN4CCN(CCC5CCN(c6ccc7c8cnccc8n(C(F)F)c7c6)CC5)CC4)cc3C2=O)C(=O)N1` (stereo not shown) [Compound 586, 5-(3-(4-(2-(1-(5-(difluoromethyl)-5H-pyrido[4,3-b]indol-7-yl)piperidin-4-yl)ethyl)piperazin-1-yl)prop-1-yn-1-yl)-2-(2,6-dioxopiperidin-3-yl)isoindoline-1,3-dione], less than 50%. On the same count and under the same terms, the figure for `O=C1CCC(N2C(=O)c3ccc(OCCCCCN4CCC(OC5CN(c6ncc(-c7ccc8c9cnccc9n(C(F)F)c8c7)cc6C(F)(F)F)C5)CC4)cc3C2=O)C(=O)N1` (stereo not shown) [Compound 442, 5-[5-[14-[1-[5-[5-(Difluoromethyl)pyrido[4,3-b]indol-7-yl]-3-(trifluoromethyl)-2-pyridyl]azetidin-3-yl]oxy-1-piperidyl]pentoxy]-2-(2,6-dioxo-3-piperidyl)isoindoline-1,3-dione formate] is less than 50%; for `Cn1c2ccncc2c2ccc(-c3ccc(O[C@H]4C[C@H](N(C)C5CC6(C5)CN(CCC5CCN(c7ccc8c(c7)C(=O)N(C7CCC(=O)NC7=O)C8=O)CC5)C6)C4)nc3)cc21` (stereo partly shown) [Compound 401, 2-(2,6-dioxopiperidin-3-yl)-5-(4-(2-(6-(methyl((1r,3r)-3-((5-(5-methyl-5H-pyrido[4,3-b]indol-7-yl)pyridin-2-yl)oxy)cyclobutyl)amino)-2-azaspiro[3.3]heptan-2-yl)ethyl)piperidin-1-yl) isoindoline-1,3-dione] it is less than 50%; for `Cc1ncsc1-c1ccc([C@H](C)NC(=O)[C@@H]2C[C@@H](O)CN2C(=O)[C@@H](NC(=O)COCCOCCOCCOCCOCCOc2cc3ccn(-c4cc5c(N)cccc5cn4)c3cn2)C(C)(C)C)cc1` [Compound 351, (2S,4R)-1-((S)-20-((1-(5-aminoisoquinolin-3-yl)-1H-pyrrolo[2,3-c]pyridin-5-yl)oxy)-2-(tert-butyl)-4-oxo-6,9,12,15,18-pentaoxa-3-azaicosanoyl)-4-hydroxy-N-((S)-1-(4-(4-methylthiazol-5-yl)phenyl)ethyl) pyrrolidine-2-carboxamide] it is greater than 50%.
